The target in one experiment is JAK3 (Homo sapiens (Human), UniProt P52333). Description: Jak Biochemical HTRF Assay (JAK3). Particulars: recombinant GST-tagged catalytic domain, [ATP] 2.9 μM. The procedure: (§1) Biological Assays Jak Biochemical HTRF Assay Protocol
The ability of compounds to inhibit the activity of JAK1, JAK2, JAK3, and Tyk2 was measured using a recombinant purified GST-tagged catalytic domain for each enzyme (Invitrogen JAK1 #M4290, JAK2 #M4290, JAK3 #M4290, Tyk2 #M4290) in an HTRF format biochemical assay. […] Subsequent reagent additions employed an Agilent Bravo. […] After equilibration, 2 μL of 10×ATP in 1× assay buffer was added to initiate the kinase reaction and the plates were shaken and then incubated at room temperature for 120 minutes. At the end of the incubation, 20 μL of 2× stop buffer (streptavidin-Dylight 650 (Thermo #84547B100 mL), Eu-tagged pY20 antibody (Perkin Elmer #AD0067), EDTA, HEPES, and Triton) was added to quench the reaction. […] After normalization to untreated controls, the percent inhibition of the HTRF signal at each compound concentration was calculated. The plot of percent inhibition versus the log of compound concentration was fit with a 4-parameter dose response equation to calculate IC50 values.
In general terms: Time-resolved FRET reads energy transfer from a long-lived donor to a nearby acceptor.

The target of a further experiment is JAK2 (Homo sapiens (Human), UniProt O60674). Description: Jak Biochemical HTRF Assay (JAK2). The settings on record: recombinant GST-tagged catalytic domain, [ATP] 8.5 μM. The procedure:
as §1
The ability of compounds to inhibit the activity of JAK1, JAK2, JAK3, and Tyk2 was measured using a recombinant purified GST-tagged catalytic domain for each enzyme (Invitrogen JAK1 #M4290, JAK2 #M4290, JAK3 #M4290, Tyk2 #M4290) in an HTRF format biochemical assay. […] The basic assay protocol is as follows: First, 250 nL of diluted compounds in DMSO were dispensed into the wells of a dry 384-well Black plate (Greiner #781076) using a Labcyte Echo 555 acoustic dispenser. Subsequent reagent additions employed an Agilent Bravo. Next, 18 μL of 1.11× enzyme and 1.11× substrate in 1× assay buffer (Invitrogen kinase buffer # PV3189, 2 mM DTT, 0.05% BSA) were added to the wells and shaken and then preincubated for 30 minutes at room temperature to allow compound binding to equilibrate. After equilibration, 2 μL of 10×ATP in 1× assay buffer was added to initiate the kinase reaction and the plates were shaken and then incubated at room temperature for 120 minutes. At the end of the incubation, 20 μL of 2× stop buffer (streptavidin-Dylight 650 (Thermo #84547B100 mL), Eu-tagged pY20 antibody (Perkin Elmer #AD0067), EDTA, HEPES, and Triton) was added to quench the reaction. Plates were shaken and centrifuged and then incubated 60 minutes at room temperature and then read on a Perkin Elmer Envision (λex=337 nm, λem=665 and 615 nm, TRF delay time=20 μs). HTRF signal=10,000*665 nm reading 615 nm reading. After normalization to untreated controls, the percent inhibition of the HTRF signal at each compound concentration was calculated. The plot of percent inhibition versus the log of compound concentration was fit with a 4-parameter dose response equation to calculate IC50 values.

Bounds are passed on as bounds.

The term IC50 denotes the concentration that gives 50% inhibition.

JAK3, sequence (P52333 822-1111): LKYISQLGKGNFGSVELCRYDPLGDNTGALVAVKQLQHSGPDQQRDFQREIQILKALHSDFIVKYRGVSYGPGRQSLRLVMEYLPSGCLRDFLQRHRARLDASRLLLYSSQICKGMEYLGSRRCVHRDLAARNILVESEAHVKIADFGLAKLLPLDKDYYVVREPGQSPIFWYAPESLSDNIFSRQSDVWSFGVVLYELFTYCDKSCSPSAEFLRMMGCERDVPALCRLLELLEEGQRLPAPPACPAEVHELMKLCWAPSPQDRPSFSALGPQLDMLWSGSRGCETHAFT
JAK2, sequence (O60674 849-1124): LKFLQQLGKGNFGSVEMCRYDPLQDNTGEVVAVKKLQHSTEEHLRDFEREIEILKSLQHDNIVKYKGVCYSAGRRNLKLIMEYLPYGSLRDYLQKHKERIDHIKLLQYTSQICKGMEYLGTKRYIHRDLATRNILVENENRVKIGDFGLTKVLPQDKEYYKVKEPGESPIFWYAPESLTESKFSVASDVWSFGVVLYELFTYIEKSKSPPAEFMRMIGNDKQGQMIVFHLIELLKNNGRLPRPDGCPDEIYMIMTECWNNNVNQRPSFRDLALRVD

For the compound `CCOC(=O)c1c[nH]c2ncnc(-c3cccnc3)c12` [Example 1-28, ethyl 4-pyridin-3-yl-7H-pyrrolo[2,3-d]pyrimidine-5-carboxylate], the IC50 on JAK3 (given as range class) is 10 to 500 nM; on JAK2 (given as range class), over 500 nM.
Turning to `CCOC(=O)c1c[nH]c2ncnc(-c3ccc4c(C(=O)N(C)C)n(C)nc4c3)c12` [Example 1-30, ethyl 4-[3-(dimethylcarbamoyl)-2-methyl-2H-indazol-6-yl]-7H-pyrrolo[2,3-d]pyrimidine-5-carboxylate], the IC50 at JAK3 (given as range class) is 10 to 500 nM; at JAK2 (given as range class) it was over 500 nM.
With `CCOC(=O)c1c[nH]c2ncnc(-c3ccc4c(c3)NCC4)c12` [Example 1-31, ethyl 4-(2,3-dihydro-1H-indol-6-yl)-7H-pyrrolo[2,3-d]pyrimidine-5-carboxylate], the half-inhibitory concentration (IC50) on JAK3 worked out at 4.6 nM; on JAK2, 91 nM.
As for `CCOC(=O)c1c[nH]c2ncnc(-c3ccc(COC)c(N)c3)c12` [Example 1-33, ethyl 4-[3-amino-4-(methoxymethyl)phenyl]-7H-pyrrolo[2,3-d]pyrimidine-5-carboxylate], the concentration for half-maximal inhibition (IC50) on JAK3 (given as range class) is 10 to 500 nM; on JAK2 (given as range class), over 500 nM.
Taken in the same sequence, the figures for `CCOC(=O)c1c[nH]c2ncnc(-c3ccc(F)cc3)c12` [Example 1-34, ethyl 4-(4-fluorophenyl)-7H-pyrrolo[2,3-d]pyrimidine-5-carboxylate] were 10 to 500 nM and 10 to 500 nM.
Consider `CCOC(=O)c1c[nH]c2ncnc(-c3ccc(O)cc3)c12` [Example 1-35, ethyl 4-(4-hydroxyphenyl)-7H-pyrrolo[2,3-d]pyrimidine-5-carboxylate], for which the IC50 worked out at 5.7 nM on JAK3 and 134 nM at JAK2.
Turning to `CCOC(=O)c1c[nH]c2ncnc(-c3ccc(C(F)(F)F)cc3)c12` [Example 1-36, ethyl 4-[4-(trifluoromethyl)phenyl]-7H-pyrrolo[2,3-d]pyrimidine-5-carboxylate], the values for the half-inhibitory concentration (IC50) at JAK3 (given as range class) and on JAK2 (given as range class) were 10 to 500 nM and over 500 nM, respectively.
Taken in the same sequence, the figures for `CCOC(=O)c1c[nH]c2ncnc(-c3ccc(C)cc3)c12` [Example 1-37, ethyl 4-(4-methylphenyl)-7H-pyrrolo[2,3-d]pyrimidine-5-carboxylate] were 10 to 500 nM and 10 to 500 nM.
The matching figures for `CCOC(=O)c1c[nH]c2ncnc(-c3ccccc3C)c12` [Example 1-38, ethyl 4-(2-methylphenyl)-7H-pyrrolo[2,3-d]pyrimidine-5-carboxylate]: 10 to 500 nM and over 500 nM.
For `CCOC(=O)c1c[nH]c2ncnc(-c3ccc4ccccc4c3)c12` [Example 1-40, ethyl 4-naphthalen-2-yl-7H-pyrrolo[2,3-d]pyrimidine-5-carboxylate], the figures for the half-maximal inhibitory concentration (IC50) on JAK3 and at JAK2 were 8.8 nM and 186 nM, respectively.
The matching figures for `CCOC(=O)c1c[nH]c2ncnc(-c3ccccc3F)c12` [Example 1-41, ethyl 4-(2-fluorophenyl)-7H-pyrrolo[2,3-d]pyrimidine-5-carboxylate]: 7.5 nM and 168 nM.
The matching figures for `CCOC(=O)c1c[nH]c2ncnc(-c3cccc(F)c3)c12` [Example 1-42, ethyl 4-(3-fluorophenyl)-7H-pyrrolo[2,3-d]pyrimidine-5-carboxylate]: 9 nM and 121 nM.
In the case of `CCOC(=O)c1c[nH]c2ncnc(-c3ccccc3Cl)c12` [Example 1-43, ethyl 4-(2-chlorophenyl)-7H-pyrrolo[2,3-d]pyrimidine-5-carboxylate], the 50% inhibitory concentration (IC50) is 10 to 500 nM at JAK3 (given as range class) and over 500 nM at JAK2 (given as range class).
For the compound `CCOC(=O)c1c[nH]c2ncnc(-c3ccc(-c4ccccc4)cc3)c12` [Example 1-44, ethyl 4-biphenyl-4-yl-7H-pyrrolo[2,3-d]pyrimidine-5-carboxylate], the IC50 worked out at 4.2 nM on JAK3 and 47 nM at JAK2.
As to `CCOC(=O)c1c[nH]c2ncnc(-c3cccc(O)c3)c12` [Example 1-45, ethyl 4-(3-hydroxyphenyl)-7H-pyrrolo[2,3-d]pyrimidine-5-carboxylate], the IC50 at JAK3 came to 5.6 nM; on JAK2, 127 nM.
Taken in the same sequence, the figures for `CCOC(=O)c1c[nH]c2ncnc(-c3cccc(C)c3)c12` [Example 1-46, ethyl 4-(3-methylphenyl)-7H-pyrrolo[2,3-d]pyrimidine-5-carboxylate] were 7.6 nM and 143 nM.
Taken in the same sequence, the figures for `CCOC(=O)c1c[nH]c2ncnc(-c3ccc(N(C)C)cc3)c12` [Example 1-47, ethyl 4-[4-(dimethylamino)phenyl]-7H-pyrrolo[2,3-d]pyrimidine-5-carboxylate] were 3.3 nM and 90 nM.
On to `CCOC(=O)c1c[nH]c2ncnc(-c3ccc4c(c3)OCO4)c12` [Example 1-48, ethyl 4-(1,3-benzodioxol-5-yl)-7H-pyrrolo[2,3-d]pyrimidine-5-carboxylate], for which the results for the half-maximal inhibitory concentration (IC50) on JAK3 and on JAK2 were 3.8 nM and 66 nM, respectively.
Turning to `CCOC(=O)c1c[nH]c2ncnc(-c3ccc4ncccc4c3)c12` [Example 1-49, ethyl 4-quinolin-6-yl-7H-pyrrolo[2,3-d]pyrimidine-5-carboxylate], the IC50 was 10 to 500 nM on JAK3 (given as range class) and over 500 nM at JAK2 (given as range class).
`CCOC(=O)c1c[nH]c2ncnc(-c3cc4ccccc4s3)c12` [Example 1-50, ethyl 4-(1-benzothiophen-2-yl)-7H-pyrrolo[2,3-d]pyrimidine-5-carboxylate]: the figures for the IC50 on JAK3 and at JAK2 were 4.8 nM and 54 nM, respectively.
On to `CCOC(=O)c1c[nH]c2ncnc(-c3cn[nH]c3)c12` [Example 1-51, ethyl 4-(1H-pyrazol-4-yl)-7H-pyrrolo[2,3-d]pyrimidine-5-carboxylate], for which the IC50 at JAK3 (given as range class) is 10 to 500 nM; at JAK2 (given as range class), over 500 nM.
`CCOC(=O)c1c[nH]c2ncnc(-c3ccc4[nH]ccc4c3)c12` [Example 1-53, ethyl 4-(1H-indol-5-yl)-7H-pyrrolo[2,3-d]pyrimidine-5-carboxylate]: the figures for the concentration for half-maximal inhibition (IC50) on JAK3 and on JAK2 were 1.5 nM and 35 nM, respectively.
The matching figures for `CCOC(=O)c1c[nH]c2ncnc(-c3cc4ccccc4o3)c12` [Example 1-54, ethyl 4-(1-benzofuran-2-yl)-7H-pyrrolo[2,3-d]pyrimidine-5-carboxylate]: 4 nM and 61 nM.
For `CCOC(=O)c1c[nH]c2ncnc(-c3ccccc3N)c12` [Example 1-55, ethyl 4-(2-aminophenyl)-7H-pyrrolo[2,3-d]pyrimidine-5-carboxylate], the IC50 at JAK3 (given as range class) was 10 to 500 nM; at JAK2 (given as range class) it was over 500 nM.
The matching figures for `CCOC(=O)c1c[nH]c2ncnc(-c3cccs3)c12` [Example 1-56, ethyl 4-thiophen-2-yl-7H-pyrrolo[2,3-d]pyrimidine-5-carboxylate]: 10 to 500 nM and 10 to 500 nM.
The matching figures for `CCOC(=O)c1c[nH]c2ncnc(-c3ccsc3)c12` [Example 1-57, ethyl 4-thiophen-3-yl-7H-pyrrolo[2,3-d]pyrimidine-5-carboxylate]: 10 to 500 nM and 10 to 500 nM.
The matching figures for `CCOC(=O)c1c[nH]c2ncnc(-c3ccc(CO)nc3)c12` [Example 1-58, ethyl 4-[6-(hydroxymethyl)pyridin-3-yl]-7H-pyrrolo[2,3-d]pyrimidine-5-carboxylate]: 10 to 500 nM and over 500 nM.
As to `CCOC(=O)c1c[nH]c2ncnc(-c3cccc(OC(F)F)c3)c12` [Example 1-59, ethyl 4-[3-(difluoromethoxy)phenyl]-7H-pyrrolo[2,3-d]pyrimidine-5-carboxylate], the concentration for half-maximal inhibition (IC50) at JAK3 (given as range class) and on JAK2 (given as range class) was 10 to 500 nM in each case.
`CCOC(=O)c1c[nH]c2ncnc(-c3ccnc(CO)c3)c12` [Example 1-60, ethyl 4-[2-(hydroxymethyl)pyridin-4-yl]-7H-pyrrolo[2,3-d]pyrimidine-5-carboxylate]: the IC50 on JAK3 (given as range class) was 10 to 500 nM; on JAK2 (given as range class) it was over 500 nM.
Taken in the same sequence, the figures for `CCOC(=O)c1c[nH]c2ncnc(-c3cccc4ccsc34)c12` [Example 1-61, ethyl 4-(1-benzothiophen-7-yl)-7H-pyrrolo[2,3-d]pyrimidine-5-carboxylate] were 10 to 500 nM and over 500 nM.

For the origin of these results see patent publication US8993756B2 (Merck Sharp & Dohme Corp., priority 2011, dated 2015).
